Laboratory results from ChEMBL document CHEMBL3046189, “Synthesis of potent inhibitors of histidinol dehydrogenase” (Bioorg Med Chem Lett, 1996).
pIC50, pKd, pKi: −log10 of the molar value. The source made the active and inactive calls. The rule behind the calls is not given here.

Key:
[1] = target: T1, Histidinol dehydrogenase (Escherichia coli (strain K12), UniProt P06988); test: Inhibition of Escherichia coli histidinol dehydrogenase preincubated for 10 min before substrate histidinol addition by spectrophotometry
T1 sequence (P06988 whole entry): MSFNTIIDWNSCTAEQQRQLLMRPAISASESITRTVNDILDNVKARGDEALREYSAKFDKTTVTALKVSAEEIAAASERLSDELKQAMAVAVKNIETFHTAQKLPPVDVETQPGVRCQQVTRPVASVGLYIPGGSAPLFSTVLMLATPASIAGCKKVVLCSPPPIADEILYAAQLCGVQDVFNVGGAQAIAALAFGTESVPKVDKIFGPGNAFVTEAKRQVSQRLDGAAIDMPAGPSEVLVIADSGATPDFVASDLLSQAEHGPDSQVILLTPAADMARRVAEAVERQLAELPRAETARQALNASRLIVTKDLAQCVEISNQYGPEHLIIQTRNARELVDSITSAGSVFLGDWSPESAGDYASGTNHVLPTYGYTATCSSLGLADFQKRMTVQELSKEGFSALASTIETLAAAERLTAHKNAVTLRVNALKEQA

[2] = target: T2, Histidinol dehydrogenase, chloroplastic (Brassica oleracea var. capitata, UniProt P24226); test: Inhibition of Brassica oleracea (cabbage) histidinol dehydrogenase pre-incubated for 10 min before substrate histidinol addition by spectrophotometry
T2 sequence (P24226 whole entry): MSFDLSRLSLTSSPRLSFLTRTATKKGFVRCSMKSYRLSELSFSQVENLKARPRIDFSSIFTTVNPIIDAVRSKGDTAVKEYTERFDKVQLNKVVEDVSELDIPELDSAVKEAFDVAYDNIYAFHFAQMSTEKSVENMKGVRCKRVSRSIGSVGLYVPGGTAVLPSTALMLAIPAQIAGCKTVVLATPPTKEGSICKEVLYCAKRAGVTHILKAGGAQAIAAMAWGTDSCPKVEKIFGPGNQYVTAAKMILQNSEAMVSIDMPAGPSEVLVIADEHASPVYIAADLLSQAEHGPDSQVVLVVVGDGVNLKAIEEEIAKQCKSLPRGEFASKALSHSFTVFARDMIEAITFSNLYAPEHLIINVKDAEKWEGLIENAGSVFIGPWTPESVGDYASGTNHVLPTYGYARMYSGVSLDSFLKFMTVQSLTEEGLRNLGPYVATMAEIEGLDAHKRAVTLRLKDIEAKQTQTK

[3] = Ratio of IC50 for Escherichia coli histidinol dehydrogenase to IC50 for cabbage histidinol dehydrogenase
[4] = target: T1, Histidinol dehydrogenase; test: Binding affinity to Escherichia coli histidinol dehydrogenase
[5] = target: T3, Histidinol dehydrogenase, chloroplastic (Brassica oleracea var. capitata) (UniProt P24226); test: Ratio of histidinol IC50 to compound IC50 for Brassica oleracea (cabbage) histidinol dehydrogenase
T3 sequence (whole entry): T2 sequence (P24226 whole entry)

[6] = test system: Oryza sativa; test: Inhibition of root growth in Oryza sativa (rice) seedlings grown in agar containing basal salts in presence of histidine; type: functional, organism-based
[7] = test system: Oryza sativa; test: Inhibition of root growth in Oryza sativa (rice) seedlings grown in agar containing basal salts; type: functional, organism-based

SMILES | pIC50 [1] | pIC50 [2] | other results
N[C@@H](Cc1c[nH]cn1)C(=O)C(F)(F)C(F)(F)F | 4.70 |  | 
N[C@@H](Cc1c[nH]cn1)C(=O)CCCc1ccccc1 | 4.10 |  | 
Nc1cc(CC(=O)[C@@H](N)Cc2c[nH]cn2)ccc1Br |  | 5.10 | 
N[C@@H](Cc1c[nH]cn1)C(=O)Cc1ccccc1 | 6.00 | 7.00 | Ratio IC50 [3]: 10; pKi [2]: 8.12
N[C@H](C=O)Cc1c[nH]cn1 [L-HISTIDINAL] |  |  | pKd [4]: 8.85
N[C@@H](Cc1c[nH]cn1)C(=O)Cc1ccc(-c2ccccc2)cc1 |  | 7.40 | Ratio IC50 [5]: > 1000; pKi [2]: 8.54
N[C@@H](Cc1c[nH]cn1)C(=O)Cc1cccc(O)c1 |  | 6.52 | 
N[C@@H](Cc1c[nH]cn1)C(=O)Cc1ccc(Cl)cc1 |  | 6.52 | 
Nc1cccc(CC(=O)[C@@H](N)Cc2c[nH]cn2)c1 |  | 7.30 | growth inhibition (GI) [6]: inactive; growth inhibition (GI) [7]: Active; pKi [2]: 8.13
N[C@@H](Cc1c[nH]cn1)C(=O)Cc1ccc(Br)cc1 |  | 7.40 | growth inhibition (GI) [7]: Active; Ratio IC50 [5]: > 1000; pKi [2]: 8.36
Nc1ccc(CC(=O)[C@@H](N)Cc2c[nH]cn2)cc1 |  | 6.30 | 
CC(=O)C(N)Cc1c[nH]cn1 (stereo unspecified) | 5.00 |  | pKi [1]: 5.30
N[C@@H](Cc1c[nH]cn1)C(=O)Cc1cccc(Br)c1 |  | 7.00 | 
CCC(=O)C(N)Cc1c[nH]cn1 (stereo unspecified) | < 4.00 |  | 
N[C@@H](Cc1c[nH]cn1)C(=O)Cc1ccc(Br)c(Br)c1 |  | 7.30 | 
N[C@@H](Cc1c[nH]cn1)C(=O)c1ccccc1 | < 4.00 |  | 
N[C@@H](Cc1c[nH]cn1)C(=O)Cc1ccccc1Br |  | 6.00 | 
N[C@@H](Cc1c[nH]cn1)C(=O)CCc1ccccc1 | 4.00 |  | 
COc1ccc(CC(=O)[C@@H](N)Cc2c[nH]cn2)cc1 |  | 6.00 | 
